Results from patent US10487093B2, “Heterocyclic compounds, in particular 2-oxo-4,4,5,5,6,6,7,7-octahydrobenzoxazole derivatives, and their use as antibacterial compounds” (priority 2016, dated 2019).
Values after ≈ are worked out from the molar mass of the structure shown. Where two headings read alike, the source gives them in different places.

Tests used:
[1] = tested on: Streptococcus pneumoniae ATCC 49619; experiment: MIC, broth microdilution (CLSI) versus planktonic bacteria; type: cell-based
[2] = tested on: Acinetobacter baumannii ATCC 19606; experiment: as above; type: cell-based
[3] = tested on: Haemophilus influenzae ATCC 49247; experiment: as above; type: cell-based
[4] = tested on: Staphylococcus aureus ATCC 29213; experiment: as above; type: cell-based
[5] = tested on: Escherichia coli ATCC 25922; experiment: as above; type: cell-based
[6] = tested on: E. coli MG1655; experiment: as above; type: cell-based, Escherichia coli; conditions: Escherichia coli, MG1655, read-out: MIC, Ec MG1655 WT
[7] = tested on: E. coli MG1655 S83L; type: cell-based, Escherichia coli; conditions: compared to the isogenic parent strain E. coli MG1655; S83L mutation on DNA gyrase subunit GyrA
[8] = tested on: human hepatic cell line (HepG2 ATCC HB-8065); experiment: Human cell viability assay (CellTiter-Glo); conditions: Homo sapiens, HepG2, 24 h, read-out: IC50 (μg/mL) HepG2
[9] = tested on: E. coli MG1655 D87G; type: cell-based, Escherichia coli; conditions: compared to the isogenic parent strain E. coli MG1655; D87G mutation on DNA gyrase subunit GyrA
[10] = tested on: Acinetobacter baumannii NCTC 13420; experiment: MIC, broth microdilution (CLSI) versus planktonic bacteria; type: cell-based
[11] = tested on: Enterobacter cloacae NCTC 13406; experiment: as above; type: cell-based
[12] = tested on: Pseudomonas aeruginosa ATCC 27853; experiment: as above; type: cell-based
[13] = tested on: E. coli NCTC 13476; experiment: as above; type: cell-based; conditions: NCTC13476; Escherichia coli NCTC 13476; 16-20 h; mode of three independent experiments; read-out: MIC, Ec NCTC 13476
[14] = tested on: E. coli ATCC BAA-2452; experiment: as above; type: cell-based; conditions: Escherichia coli ATCC BAA-2452; 16-20 h; mode of three independent experiments; read-out: MIC, Ec ATCC BAA 2452
[15] = ATCC49619, Streptococcus pneumoniae ATCC 49619, 16-20 h, mode of three independent experiments, read-out: MIC, Sp ATCC 49619
[16] = ATCC19606, Acinetobacter baumannii ATCC 19606, 16-20 h, mode of three independent experiments, read-out: MIC, Ab ATCC 19606
[17] = ATCC49247, Haemophilus influenzae ATCC 49247, 16-20 h, mode of three independent experiments, read-out: MIC, Hi ATCC 49247
[18] = ATCC29213, Staphylococcus aureus ATCC 29213, 16-20 h, mode of three independent experiments, read-out: MIC, Sa ATCC 29213
[19] = ATCC25922, Escherichia coli ATCC 25922, 16-20 h, mode of three independent experiments, read-out: MIC, Ec ATCC 25922
[20] = NCTC13420, Acinetobacter baumannii NCTC 13420, 16-20 h, mode of three independent experiments, read-out: MIC, Ab NCTC 13420
[21] = NCTC13406, Enterobacter cloacae NCTC 13406, 16-20 h, mode of three independent experiments, read-out: MIC, Ecl NCTC 13406
[22] = ATCC27853, Pseudomonas aeruginosa ATCC 27853, 16-20 h, mode of three independent experiments, read-out: MIC, Pa ATCC 27853

| Compound | MIC [1, 15] [mg/L] | MIC [2, 16] [mg/L] | MIC [3, 17] [mg/L] | MIC [4, 18] [mg/L] | MIC [5, 19] [mg/L] | MIC [6] [mg/L] | Fold increase in MIC, E. coli MG1655 S83L [7] [fold] | IC50 [8] [µg/mL] | Fold increase in MIC, E. coli MG1655 D87G [9] [fold] | MIC [10, 20] [mg/L] | MIC [11, 21] [mg/L] | MIC [12, 22] [mg/L] | also measured |
| --- | --- | --- | --- | --- | --- | --- | --- | --- | --- | --- | --- | --- | --- |
| COc1ccc2c3conc3c(=O)n(CCN[C@H]3CC[C@H]4[C@@H](C3)OC(=O)N4c3ccc4c(n3)NC(=O)CO4)c2c1 [Compound 11, (3aS,6S,7aR)-6-[(2-{7-methoxy-4-oxo-4H,5H-[1,2]oxazolo[3,4-c]quinolin-5-yl}ethyl)amino]-3-{3-oxo-2H,3H,4H-pyrido[3,2-b][1,4]oxazin-6-yl}-octahydro-1,3-benzoxazol-2-one] | 1 to 10 (≈ 1.83 to 18.3 µM) | 1 to 10 (≈ 1.83 to 18.3 µM) | 1 to 10 (≈ 1.83 to 18.3 µM) | < 1 | < 1 | < 1 | 2 | 10 to 100 (≈ 18.3 to 183 µM) | 1 | < 1 | 1 to 10 (≈ 1.83 to 18.3 µM) | 1 to 10 (≈ 1.83 to 18.3 µM) |  |
| O=C1COc2ccc(N3C(=O)O[C@@H]4C[C@@H](NCCn5c(=O)ccc6ccc(Oc7cccnc7)nc65)CC[C@@H]43)nc2N1 [Compound 12, 1-(2-{[(3aS,6S,7aR)-2-oxo-3-{3-oxo-2H,3H,4H-pyrido[3,2-b][1,4]oxazin-6-yl}-octahydro-1,3-benzoxazol-6-yl]amino}ethyl)-7-(pyridin-3-yloxy)-1,2-dihydro-1,8-naphthyridin-2-one] | < 1 | 1 to 10 (≈ 1.76 to 17.6 µM) | 1 to 10 (≈ 1.76 to 17.6 µM) | < 1 | < 1 | < 1 | 1 | > 100 | 1 | 1 to 10 (≈ 1.76 to 17.6 µM) | 1 to 10 (≈ 1.76 to 17.6 µM) | 1 to 10 (≈ 1.76 to 17.6 µM) |  |
| COc1ccc2ccc(=O)n(CCN(CCN)[C@H]3CC[C@H]4[C@@H](C3)OC(=O)N4c3ccc4c(n3)NC(=O)CO4)c2n1 [Compound 13, 1-(2-{[(3aS,6S,7aR)-2-oxo-3-{3-oxo-2H,3H,4H-pyrido[3,2-b][1,4]oxazin-6-yl}-octahydro-1,3-benzoxazol-6-yl](2-aminoethyl)amino}ethyl)-7-methoxy-1,2-dihydro-1,8-naphthyridin-2-one] | 1 to 10 (≈ 1.82 to 18.2 µM) |  | 10 to 100 (≈ 18.2 to 182 µM) | < 1 | 1 to 10 (≈ 1.82 to 18.2 µM) |  |  | > 100 |  | 10 to 100 (≈ 18.2 to 182 µM) | 10 to 100 (≈ 18.2 to 182 µM) | 1 to 10 (≈ 1.82 to 18.2 µM) | MIC [13]: 1 to 10 mg/L (≈ 1.82 to 18.2 µM) |
| CNCCOc1ccc2ccc(=O)n(CCN[C@@H]3CC[C@@H]4[C@@H](C3)OC(=O)N4c3ccc4c(n3)NC(=O)CO4)c2c1 [Compound 39, (3aR,6R,7aR)—N-(2-{7-[2-(methylazaniumyl)ethoxy]-2-oxo-1,2-dihydroquinolin-1-yl}ethyl)-2-oxo-3-{3-oxo-2H,3H,4H-pyrido[3,2-b][1,4]oxazin-6-yl}-octahydro-1,3-benzoxazol-6-aminium dichloride] |  |  |  |  |  |  |  | > 100 |  |  |  |  | MIC ([1]; Streptococcus pneumoniae, ATCC49619, read-out: MIC, Sp ATCC 49619): 1 to 10 mg/L; MIC ([2]; Acinetobacter baumannii, ATCC19606, read-out: MIC, Ab ATCC 19606): > 100 mg/L; MIC ([3]; Haemophilus influenzae, ATCC49247, read-out: MIC, Hi ATCC 49247): 10 to 100 mg/L; MIC ([4]; Staphylococcus aureus, ATCC29213, read-out: MIC, Sa ATCC 29213): 1 to 10 mg/L; MIC ([5]; Escherichia coli, ATCC25922, read-out: MIC, Ec ATCC 25922): 1 to 10 mg/L; MIC ([10]; Acinetobacter baumannii, NCTC13420, read-out: MIC, Ab NCTC 13420): 10 to 100 mg/L; MIC ([11]; Enterobacter cloacae, NCTC13406, read-out: MIC, Ecl NCTC 13406): 10 to 100 mg/L; MIC ([12]; Pseudomonas aeruginosa, ATCC27853, read-out: MIC, Pa ATCC 27853): 1 to 10 mg/L |
| COc1cnc2ccc(=O)n(CCN[C@H]3CC[C@H]4[C@H](C3)OC(=O)N4c3ccc4c(n3)NC(=O)CO4)c2c1 [Compound 42, 7-methoxy-1-{2-[(2-oxo-3-{3-oxo-2H,3H,4H-pyrido[3,2-b][1,4]oxazin-6-yl}-octahydro-1,3-benzoxazol-6-yl)amino]ethyl}-1,2-dihydro-1,5-naphthyridin-2-one] | < 1 | 1 to 10 (≈ 1.97 to 19.7 µM) | < 1 | < 1 | < 1 | < 1 | 1 | > 100 | 2 | < 1 | < 1 | 1 to 10 (≈ 1.97 to 19.7 µM) |  |
| COc1ccc2ccc(=O)n(CCCN[C@@H]3CC[C@@H]4[C@@H](C3)OC(=O)N4c3ncc4c(n3)NC(=O)CO4)c2n1 [Compound 79, 1-(3-{[(3aR,6R,7aR)-2-oxo-3-{7-oxo-6H,7H,8H-pyrimido[5,4-b][1,4]oxazin-2-yl}-octahydro-1,3-benzoxazol-6-yl]amino}propyl)-7-methoxy-1,2-dihydro-1,8-naphthyridin-2-one] | < 1 | 1 to 10 (≈ 1.92 to 19.2 µM) | < 1 | < 1 | < 1 |  |  | 10 to 100 (≈ 19.2 to 192 µM) |  | < 1 | 1 to 10 (≈ 1.92 to 19.2 µM) | 1 to 10 (≈ 1.92 to 19.2 µM) |  |
| N#Cc1cnc2ccc(=O)n(CCCN[C@H]3CC[C@H]4[C@H](C3)OC(=O)N4c3ccc4c(n3)NC(=O)CO4)c2c1 [Compound 82, 5-(3-{[(3aS,6S,7aS)-2-oxo-3-{3-oxo-2H,3H,4H-pyrido[3,2-b][1,4]oxazin-6-yl}-octahydro-1,3-benzoxazol-6-yl]amino}propyl)-6-oxo-5,6-dihydro-1,5-naphthyridine-3-carbonitrile] | < 1 | 1 to 10 (≈ 1.94 to 19.4 µM) | < 1 | < 1 | < 1 | < 1 | 0.5 |  | 1 | 1 to 10 (≈ 1.94 to 19.4 µM) | 1 to 10 (≈ 1.94 to 19.4 µM) | 1 to 10 (≈ 1.94 to 19.4 µM) | MIC [14]: 1 to 10 mg/L (≈ 1.94 to 19.4 µM) |
| COc1ccc2ccc(=O)n(CCCN[C@H]3CC[C@H]4[C@H](C3)OC(=O)N4c3ccc4c(n3)NC(=O)CO4)c2n1 [Compound 83, 1-(3-{[(3aS,6S,7aS)-2-oxo-3-{3-oxo-2H,3H,4H-pyrido[3,2-b][1,4]oxazin-6-yl}-octahydro-1,3-benzoxazol-6-yl]amino}propyl)-7-methoxy-1,2-dihydro-1,8-naphthyridin-2-one] | < 1 | < 1 | < 1 | < 1 | < 1 |  |  | 10 to 100 (≈ 19.2 to 192 µM) |  | < 1 | < 1 | 1 to 10 (≈ 1.92 to 19.2 µM) | MIC [14]: < 1 mg/L; MIC [13]: < 1 mg/L |
| O=C1COc2ccc(N3C(=O)O[C@@H]4C[C@H](NCCn5c(=O)cnc6ccc(F)cc65)CC[C@H]43)nc2N1 [Compound 86, 1-(2-{[(3aR,6R,7aR)-2-oxo-3-{3-oxo-2H,3H,4H-pyrido[3,2-b][1,4]oxazin-6-yl}-octahydro-1,3-benzoxazol-6-yl]amino}ethyl)-7-fluoro-1,2-dihydroquinoxalin-2-one] | < 1 | < 1 | < 1 | < 1 | < 1 |  |  | 10 to 100 (≈ 20.2 to 202 µM) |  | < 1 | < 1 | 1 to 10 (≈ 2.02 to 20.2 µM) | MIC [14]: < 1 mg/L; MIC [13]: < 1 mg/L |
| N#Cc1ccc2c(ccc(=O)n2CCN[C@@H]2CC[C@@H]3[C@@H](C2)OC(=O)N3c2ccc3c(n2)NC(=O)CO3)c1 [Compound 106, 1-(2-{[(3aR,6R,7aR)-2-oxo-3-{3-oxo-2H,3H,4H-pyrido[3,2-b][1,4]oxazin-6-yl}-octahydro-1,3-benzoxazol-6-yl]amino}ethyl)-2-oxo-1,2-dihydroquinoline-6-carbonitrile] | < 1 |  |  | < 1 | < 1 | < 1 |  |  |  | 1 to 10 (≈ 2 to 20 µM) | 1 to 10 (≈ 2 to 20 µM) |  |  |
| C[C@H]1COc2c(N3CCN(C)CC3)c(F)cc3c(=O)c(C(=O)O)cn1c23 [LEV, levofloxacin, reference compound] |  |  |  |  |  |  | 8 |  | 8 |  |  |  |  |
